The record followed here is patent US20240252493A1, “Apelin Receptor Modulators for Treating Age-Related Muscle Conditions” (BIOAGE LABS, INC., priority 2021, published 2024).

The test system of one assay is tibialis of aged mice. The assay can be described thus: CTX-induced muscle injury: histology (cross-sectional area, centrally nucleated fibers). It is filed as in vivo. The protocol:
Impairment of muscle regeneration can contribute to age-related muscle weakness. This is particularly true in aged individuals who engage in physical activity. Exercise-induced muscle hypertrophy is linked to the capacity of muscle stem cells to be activated and promote regeneration.
Mice were i.p injected with buprenorphine (Centravet, 0.1 mg/kg) 30 minutes before injury and the day after. The day of the injury, mice were anesthetized with isoflurane inhalation and hindlimbs were shaved. Then, 10 μM of cardiotoxin (CTX, Latoxan, #L8102) was injected through two injections of 25 μl into the left tibialis muscle and two injections of 50 μl into the left gastrocnemius muscle, using a 22-gauge needle (Hamilton). Mice were euthanized 3 and 7 days after injury by cervical dislocation, muscles (PBS- and CTX-injected) were cut in two parts, one being snap frozen into liquid nitrogen for total RNA extraction and the other part being embedded into OCT, frozen in isopentane cooled with liquid nitrogen for histological analysis.
Mouse muscle samples were dissected and cryopreserved in OCT frozen in liquid nitrogen cooled isopentane. Samples were then sectioned at 10 μm on a cryostat and post-fixed with 4% Paraformaldehyde (PFA) for 15min at room temperature. Muscle frozen sections (10 μm) were stained by helaun/eosin or immune-labeled for laminin (Abcam) and embryonic myosin. Briefly, sections were blocked 1 h in PBS plus 4% BS(a), 2% goat serum, 0.01% Triton X-100. Sections were then incubated overnight with primary antibodies. After washes in PBS, sections were incubated 1 h with secondary antibodies anti-Ig2b AF 488 (Life Technology). Slides were finally mounted in ProLong Gold antifade Reagent (Molecular probes by Life Technology) with DAPI. Images were captured using a digital camera (Nanozoomer, Hamamatsu) attached to a motorized fluorescence microscope or using Olympus VS120 Virtual Microscopy Slide Scanning System. The area covered by eMHC-positive fibers and degenerated area was determined manually across the entire sections using the VS-ASW FL software measurement tools. The size of myofibers with central nuclei was calculated from laminin/DAPI staining on all fibers of the section and area determination were performed across the entire sections, using an automated image processing algorithm developed internally using the MetaXpress software (Molecular Devices).

Assay [1] concerns Pax7, MyoD, MyoG, Myf5, MyHC3, and MyHC8. The assay can be described thus: CTX-induced muscle injury: transcript levels of regeneration genes. It is filed as in vivo, mice. The protocol: Impairment of muscle regeneration can contribute to age-related muscle weakness. This is particularly true in aged individuals who engage in physical activity. Exercise-induced muscle hypertrophy is linked to the capacity of muscle stem cells to be activated and promote regeneration. […] Mice were i.p injected with buprenorphine (Centravet, 0.1 mg/kg) 30 minutes before injury and the day after. The day of the injury, mice were anesthetized with isoflurane inhalation and hindlimbs were shaved. Then, 10 μM of cardiotoxin (CTX, Latoxan, #L8102) was injected through two injections of 25 μl into the left tibialis muscle and two injections of 50 μl into the left gastrocnemius muscle, using a 22-gauge needle (Hamilton). Mice were euthanized 3 and 7 days after injury by cervical dislocation, muscles (PBS- and CTX-injected) were cut in two parts, one being snap frozen into liquid nitrogen for total RNA extraction and the other part being embedded into OCT, frozen in isopentane cooled with liquid nitrogen for histological analysis.

Setting [2] is: gastrocnemius, aged mice, 3 or 7 days, apelin 0.5 μmol/kg/day, BGE-105 50 and 200 mg/kg/day.
[3] abbreviates: gastrocnemius, young mice, 3 or 7 days, apelin 0.5 μmol/kg/day, BGE-105 50 and 200 mg/kg/day.
Setting [4] is: tibialis anterior, aged mice, 7 days, apelin 0.5 μmol/kg/day, BGE-105 50 and 200 mg/kg/day.
The mark [5] stands for this setting: tibialis, young mice, 3 or 7 days, apelin 0.5 μmol/kg/day, BGE-105 50 and 200 mg/kg/day.

For the compound `CSCC[C@H](NC(=O)[C@@H]1CCCN1C(=O)CNC(=O)[C@H](CCCCN)NC(=O)[C@H](Cc1c[nH]cn1)NC(=O)[C@H](CO)NC(=O)[C@H](CC(C)C)NC(=O)[C@H](CCCNC(=N)N)NC(=O)[C@@H]1CCCN1C(=O)[C@H](CCCNC(=N)N)NC(=O)[C@@H]1CCC(=O)N1)C(=O)N1CCC[C@H]1C(=O)N[C@@H](Cc1ccccc1)C(=O)O` [Pyr^1-Apelin-13, reference compound], in the assay on tibialis of aged mice (18-months old mice after cardiotoxin, apelin 0.5 μmol/kg/day, BGE-105 200 mg/kg/day), the “amount of centrally nucleated myofibers (CNM)” value is recorded as “significant increase”. Besides, the “cross-sectional area of the tibialis” value in the assay on tibialis of aged mice (aged mice, 3 and 7 days post cardiotoxin, apelin, BGE-105 50 and 200 mg/kg/d) is listed as “significant increase in cross sectional area”. Also, the Pax7 transcript levels entry was “no significant change” in assay [1] (gastrocnemius, aged (18-month-old) mice, 3 or 7 days, apelin 0.5 μmol/kg/day, BGE-105 50 and 200 mg/kg/day); “no change” in assay [1] (gastrocnemius, young (3-month-old) mice, 3 or 7 days, apelin 0.5 μmol/kg/day, BGE-105 50 and 200 mg/kg/day); “significant increase” in assay [1] (tibialis anterior, aged (18-month-old) mice, 7 days post cardiotoxin, apelin 0.5 μmol/kg/day, BGE-105 50 and 200 mg/kg/day); “no change” in assay [1] (tibialis, young (3-month-old) mice, 3 or 7 days, apelin 0.5 μmol/kg/day, BGE-105 50 and 200 mg/kg/day). The MyoD transcript levels entry in assay [1] (gastrocnemius, aged mice, 3 and 7 days, apelin 0.5 μmol/kg/day, BGE-105 50 and 200 mg/kg/day) is “significant increase”; in assay [1] (setting [3]), “no change”; in assay [1] (tibialis anterior, aged mice, 3 and 7 days post cardiotoxin, apelin 0.5 μmol/kg/day, BGE-105 50 and 200 mg/kg/day) it was “significant increase”; in assay [1] (setting [5]) it was “no significant increase”. For the same compound, the Myf5 transcript levels entry was “no significant change” in assay [1] (setting [2]), “no change” in assay [1] (setting [3]), “significant change” in assay [1] (setting [4]) and “no difference” in assay [1] (setting [5]). Besides, the MyoG transcript levels entry in assay [1] (setting [2]) is listed as “no significant change”; in assay [1] (setting [3]) it was “no change”; in assay [1] (setting [4]), “significant increase”; in assay [1] (setting [5]) it was “no difference”. The MyHC8 transcript levels result in assay [1] (gastrocnemius, aged mice, any time point, any treatment) is recorded as “does not show a change”; in assay [1] (gastrocnemius, young mice, 3 days, apelin 0.5 μmol/kg/day, BGE-105 50 and 200 mg/kg/day), “non-significant increase”; in assay [1] (setting [5]) it was “no significant change”. Further, the values for the MyHC3 transcript levels entry in assay [1] (setting [4]) and in assay [1] (setting [5]) were “significant increase” and “no significant change”, respectively.
